Details: 323.15 K, Liquid, Vibrating tube method

CCCCCCCC(=O)OCC(COC(=O)CCCCCCC)(COC(=O)CCCCCCC)COC(=O)CCCCCCC [pentaerythritol tetraoctanoate]
Details | mass density [kg/m3]
16301 kPa | 951.3
16330 kPa | 951.2
16376 kPa | 951.3
16399 kPa | 951.4
16422 kPa | 951.4
16451 kPa | 951.3
16486 kPa | 951.5
16514 kPa | 951.3
16560 kPa | 951.4
16590 kPa | 951.6
16619 kPa | 951.6
16654 kPa | 951.5
16683 kPa | 951.5
16714 kPa | 951.6
16744 kPa | 951.6
16780 kPa | 951.7
16810 kPa | 951.5
16846 kPa | 951.5
16876 kPa | 951.7
16907 kPa | 951.6
16937 kPa | 951.7
16974 kPa | 951.6
17005 kPa | 951.8
17037 kPa | 951.9
17074 kPa | 951.8
17106 kPa | 951.8
17140 kPa | 951.8
17172 kPa | 951.9
17203 kPa | 951.8
17241 kPa | 951.9
17266 kPa | 951.9
17311 kPa | 951.8
17344 kPa | 951.9
17376 kPa | 951.9
17414 kPa | 952
17448 kPa | 951.9
17480 kPa | 952
17513 kPa | 951.9
17554 kPa | 952
17583 kPa | 952.2
17622 kPa | 952.1
17656 kPa | 952.1
17696 kPa | 952.2
17730 kPa | 952.1
17763 kPa | 952.1
17797 kPa | 952.3
17838 kPa | 952.3
17872 kPa | 952.2
17907 kPa | 952.2
17948 kPa | 952.3
17984 kPa | 952.3
18019 kPa | 952.4
18055 kPa | 952.5
18097 kPa | 952.4
18132 kPa | 952.3
18168 kPa | 952.3
18210 kPa | 952.5
18246 kPa | 952.5
18282 kPa | 952.4
18325 kPa | 952.6
18361 kPa | 952.5
18398 kPa | 952.7
18442 kPa | 952.6
18479 kPa | 952.7
18516 kPa | 952.6
18554 kPa | 952.7
18599 kPa | 952.7
18637 kPa | 952.7
18682 kPa | 952.7
18720 kPa | 952.8
18758 kPa | 952.8
18796 kPa | 952.7
18843 kPa | 952.9
18882 kPa | 952.8
18922 kPa | 952.9
18970 kPa | 953
19012 kPa | 953
19056 kPa | 953
19097 kPa | 953
19139 kPa | 953.1
19166 kPa | 952.9
19197 kPa | 953.2
19223 kPa | 953.1
19250 kPa | 953.1
19282 kPa | 953
19308 kPa | 953.1
19341 kPa | 953.3
19368 kPa | 953.2
19395 kPa | 953.2
19422 kPa | 953.3
19456 kPa | 953.2
19483 kPa | 953.2
19511 kPa | 953.2
19543 kPa | 953.4
19571 kPa | 953.3
19603 kPa | 953.2
19632 kPa | 953.3
19660 kPa | 953.4
19688 kPa | 953.4
19722 kPa | 953.4
19750 kPa | 953.4
19778 kPa | 953.4
19812 kPa | 953.4
19842 kPa | 953.6
19871 kPa | 953.4
19905 kPa | 953.5
19934 kPa | 953.4
19962 kPa | 953.5
19997 kPa | 953.5
20055 kPa | 953.4
20090 kPa | 953.6
20119 kPa | 953.6
20149 kPa | 953.7
20185 kPa | 953.7
20216 kPa | 953.7
20246 kPa | 953.7
20276 kPa | 953.7
20307 kPa | 953.8
20343 kPa | 953.7
20373 kPa | 953.7
20404 kPa | 953.7
20441 kPa | 953.8
20471 kPa | 953.8
20502 kPa | 953.9
20538 kPa | 953.8
20570 kPa | 954
20601 kPa | 953.9
20634 kPa | 954
20667 kPa | 954
20705 kPa | 954
20736 kPa | 954
20767 kPa | 954
20805 kPa | 954.1
20836 kPa | 954.1
20868 kPa | 954
20906 kPa | 954
20938 kPa | 954.2
20970 kPa | 954.1
21008 kPa | 954.2
21041 kPa | 954.1
21074 kPa | 954.1
21107 kPa | 954.2
21146 kPa | 954.2
21178 kPa | 954.1
21218 kPa | 954.3
21251 kPa | 954.4
21284 kPa | 954.4
21324 kPa | 954.4
21358 kPa | 954.4
21391 kPa | 954.4
21431 kPa | 954.4
21466 kPa | 954.4
21500 kPa | 954.5
21542 kPa | 954.5
21576 kPa | 954.5
21604 kPa | 954.5
21646 kPa | 954.4
21680 kPa | 954.7
21722 kPa | 954.6
21756 kPa | 954.6
21798 kPa | 954.5
21832 kPa | 954.6
21946 kPa | 954.8
21982 kPa | 954.6
22025 kPa | 954.7
22061 kPa | 954.8
22097 kPa | 954.7
22134 kPa | 954.9
22178 kPa | 954.9
22215 kPa | 954.9
22259 kPa | 954.9
22295 kPa | 955
22325 kPa | 954.9
22369 kPa | 954.9
22414 kPa | 955
22451 kPa | 955.1
22490 kPa | 955.1
22537 kPa | 955.1
22576 kPa | 955
22616 kPa | 955.2
22664 kPa | 955.1
22705 kPa | 955.3
22743 kPa | 955.2
22780 kPa | 955.2
22834 kPa | 955.5
22861 kPa | 955.3
22894 kPa | 955.3
22922 kPa | 955.3
22950 kPa | 955.3
22983 kPa | 955.3
23011 kPa | 955.4
23038 kPa | 955.4
23066 kPa | 955.4
23100 kPa | 955.3
23127 kPa | 955.5
23161 kPa | 955.5
23189 kPa | 955.5
23217 kPa | 955.6
23250 kPa | 955.5
23279 kPa | 955.6
23308 kPa | 955.5
23344 kPa | 955.5
23372 kPa | 955.7
23400 kPa | 955.5
23429 kPa | 955.7
23464 kPa | 955.7
23492 kPa | 955.6
23521 kPa | 955.6
23556 kPa | 955.6
23585 kPa | 955.8
23614 kPa | 955.8
23649 kPa | 955.8
23679 kPa | 955.8
23709 kPa | 955.9
23740 kPa | 955.8
23769 kPa | 955.8
23804 kPa | 955.8
23834 kPa | 955.8
23869 kPa | 955.8
23899 kPa | 955.9
23929 kPa | 955.9
23965 kPa | 955.9
23995 kPa | 955.9
24025 kPa | 955.9
24062 kPa | 956
24092 kPa | 955.9
24124 kPa | 955.9
24161 kPa | 956
24191 kPa | 956.2
24223 kPa | 956.1
24260 kPa | 956.1
24291 kPa | 956
24322 kPa | 956.2
24354 kPa | 956.1
24391 kPa | 956.2
24422 kPa | 956.1
24460 kPa | 956.2
24491 kPa | 956.3
24523 kPa | 956.3
24562 kPa | 956.3
24594 kPa | 956.3
24626 kPa | 956.3
24658 kPa | 956.4
24696 kPa | 956.4
24728 kPa | 956.4
24766 kPa | 956.4
24799 kPa | 956.4
24832 kPa | 956.5
24871 kPa | 956.5
24903 kPa | 956.5
24936 kPa | 956.6
24976 kPa | 956.5
25008 kPa | 956.6
25042 kPa | 956.6
25075 kPa | 956.5
25115 kPa | 956.5
25149 kPa | 956.7
25188 kPa | 956.6
25222 kPa | 956.6
25256 kPa | 956.7
25290 kPa | 956.7
25330 kPa | 956.6
25364 kPa | 956.7
25398 kPa | 956.8
25439 kPa | 956.8
25474 kPa | 956.8
25509 kPa | 956.8
25550 kPa | 956.8
25584 kPa | 957
25619 kPa | 956.9
25654 kPa | 957
25695 kPa | 957
25729 kPa | 956.9
25771 kPa | 957
25806 kPa | 957.1
25842 kPa | 957.1
25878 kPa | 957.1
25920 kPa | 957.1
25957 kPa | 957
25993 kPa | 957.2
26028 kPa | 957.1
26071 kPa | 957.1
26107 kPa | 957.1
26150 kPa | 957.2
26186 kPa | 957.2
26223 kPa | 957.3
26259 kPa | 957.3
26303 kPa | 957.3
26340 kPa | 957.2
26384 kPa | 957.3
26421 kPa | 957.5
26460 kPa | 957.3
26498 kPa | 957.4
26535 kPa | 957.4
26579 kPa | 957.5

Source: the NIST ThermoML archive (doi:10.1021/je060271a)
